Results from ChEMBL document CHEMBL1201862, “PubChem BioAssay data set” (2004).
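Tested at 5 concentrations; 48 h exposure; 96-well plates; endpoints linearly interpolated, else capped at highest concentration. Abbreviation: GI50, concentration required for 50% inhibition of growth.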 Activity calls are given as the source filed them. Rule as the data show it: active = GI50 up to about 1.1 µM and inactive = higher.

Key:
Test in all cases: growth of human tumour cells (NCI), 48 h
Hs-578T = tested on: Hs-578T
HCT-116 = tested on: HCT-116
NCI-H23 = tested on: NCI-H23
786-0 = tested on: 786-0
HOP-92 = tested on: HOP-92
SK-OV-3 = tested on: SK-OV-3
OVCAR-3 = tested on: OVCAR-3
HOP-62 = tested on: HOP-62
SF-268 = tested on: SF-268
SN12C = tested on: SN12C
HCT-15 = tested on: HCT-15
UACC-62 = tested on: UACC-62
TK-10 = tested on: TK-10
DU-145 = tested on: DU-145
NCI/ADR-RES = tested on: NCI/ADR-RES
MCF7 = tested on: MCF7
SNB-75 = tested on: SNB-75
M14 = tested on: M14
BT-549 = tested on: BT-549
IGROV-1 = tested on: IGROV-1
NCI-H226 = tested on: NCI-H226
U-251 = tested on: U-251
K562 = tested on: K562
COLO 205 = tested on: COLO 205
SR = tested on: SR
MDA-MB-435 = tested on: MDA-MB-435
RXF 393 = tested on: RXF 393
KM12 = tested on: KM12
NCI-H522 = tested on: NCI-H522
RPMI-8226 = tested on: RPMI-8226
Malme-3M = tested on: Malme-3M
SF-539 = tested on: SF-539
EKVX = tested on: EKVX
MDA-N = tested on: MDA-N
OVCAR-8 = tested on: OVCAR-8
CCRF-CEM = tested on: CCRF-CEM
OVCAR-4 = tested on: OVCAR-4
LOX IMVI = tested on: LOX IMVI
SF-295 = tested on: SF-295
HT-29 = tested on: HT-29
A498 = tested on: A498
MDA-MB-231 = tested on: MDA-MB-231
ACHN = tested on: ACHN
HL-60 = tested on: HL-60
UACC-257 = tested on: UACC-257
T47D = tested on: T47D
SW-620 = tested on: SW-620
UO-31 = tested on: UO-31
HCC 2998 = tested on: HCC 2998
MOLT-4 = tested on: MOLT-4
PC-3 = tested on: PC-3
SK-MEL-28 = tested on: SK-MEL-28
NCI-H460 = tested on: NCI-H460
A549 = tested on: A549
OVCAR-5 = tested on: OVCAR-5
CAKI-1 = tested on: CAKI-1
SK-MEL-2 = tested on: SK-MEL-2
SNB-19 = tested on: SNB-19
SK-MEL-5 = tested on: SK-MEL-5

Measured: GI50

CCc1c(N=[N+]=[N-])c2ccccc2oc1=O
> 100 µM: HCT-15
inactive: Hs-578T 49.8 µM | HCT-116 > 100 µM | NCI-H23 > 100 µM | 786-0 > 100 µM | HOP-92 > 100 µM | SK-OV-3 > 100 µM | OVCAR-3 > 100 µM | HOP-62 > 100 µM | SF-268 > 100 µM | SN12C > 100 µM | UACC-62 > 100 µM | TK-10 > 100 µM | DU-145 > 100 µM | NCI/ADR-RES > 100 µM | MCF7 > 100 µM | SNB-75 69.3 µM | M14 > 100 µM | BT-549 > 100 µM | IGROV-1 49.7 µM | NCI-H226 > 100 µM | U-251 > 100 µM | K562 > 100 µM | COLO 205 > 100 µM | SR > 100 µM | MDA-MB-435 > 100 µM | RXF 393 > 100 µM | KM12 > 100 µM | NCI-H522 > 100 µM | RPMI-8226 > 100 µM | Malme-3M > 100 µM | SF-539 > 100 µM | EKVX 36.3 µM | MDA-N > 100 µM | OVCAR-8 > 100 µM | CCRF-CEM > 100 µM | OVCAR-4 > 100 µM | LOX IMVI > 100 µM | SF-295 > 100 µM | HT-29 > 100 µM | A498 > 100 µM | MDA-MB-231 > 100 µM | ACHN > 100 µM | HL-60 > 100 µM | UACC-257 > 100 µM | T47D > 100 µM | SW-620 > 100 µM | UO-31 > 100 µM | HCC 2998 > 100 µM | MOLT-4 > 100 µM | PC-3 > 100 µM | SK-MEL-28 > 100 µM | NCI-H460 > 100 µM | A549 > 100 µM

COC(C(O)CO)C(O)C(O)C(=O)NNc1ccccc1 (stereo unspecified)
> 100 µM: HCT-15
inactive: Hs-578T > 100 µM | HCT-116 > 100 µM | NCI-H23 > 100 µM | 786-0 > 100 µM | HOP-92 > 100 µM | SK-OV-3 > 100 µM | OVCAR-5 > 100 µM | CAKI-1 18.6 µM | OVCAR-3 > 100 µM | HOP-62 > 100 µM | SF-268 23.3 µM | SN12C > 100 µM | UACC-62 5.33 µM | TK-10 > 100 µM | DU-145 > 100 µM | NCI/ADR-RES 16.5 µM | MCF7 39.2 µM | SNB-75 > 100 µM | SK-MEL-2 38.9 µM | M14 57.7 µM | BT-549 > 100 µM | IGROV-1 47.4 µM | U-251 > 100 µM | SNB-19 > 100 µM | K562 4.05 µM | COLO 205 11.7 µM | SR > 100 µM | MDA-MB-435 40.3 µM | RXF 393 > 100 µM | KM12 23.6 µM | NCI-H522 > 100 µM | RPMI-8226 47.5 µM | Malme-3M > 100 µM | SF-539 22.4 µM | EKVX 21.7 µM | MDA-N 20 µM | OVCAR-8 > 100 µM | CCRF-CEM 42.7 µM | LOX IMVI 2.92 µM | SF-295 21 µM | HT-29 > 100 µM | A498 > 100 µM | MDA-MB-231 > 100 µM | ACHN > 100 µM | HL-60 6.32 µM | UACC-257 > 100 µM | T47D 23.2 µM | SW-620 8.49 µM | UO-31 > 100 µM | HCC 2998 > 100 µM | MOLT-4 > 100 µM | PC-3 > 100 µM | SK-MEL-28 > 100 µM | NCI-H460 9.46 µM | A549 > 100 µM | SK-MEL-5 37.2 µM
